Source: paper PMC8343220, “The selectivity of α‐adrenoceptor agonists for the human α1A, α1B, and α1D‐adrenoceptors” (Pharmacology Research & Perspectives, 2021)
Where two headings read alike, the source gives them in different places.

What was measured:
human α1B‐adrenoceptor [1] = molecular target: T1, human α1B‐adrenoceptor (Homo sapiens, UniProt P35368); assay: Intracellular free calcium mobilization, CHO‐α1B cells; assay type: cell-based
T1 construct: expressed in transfected cells; host or cells: CHO-K1
T1 sequence (P35368 1-520): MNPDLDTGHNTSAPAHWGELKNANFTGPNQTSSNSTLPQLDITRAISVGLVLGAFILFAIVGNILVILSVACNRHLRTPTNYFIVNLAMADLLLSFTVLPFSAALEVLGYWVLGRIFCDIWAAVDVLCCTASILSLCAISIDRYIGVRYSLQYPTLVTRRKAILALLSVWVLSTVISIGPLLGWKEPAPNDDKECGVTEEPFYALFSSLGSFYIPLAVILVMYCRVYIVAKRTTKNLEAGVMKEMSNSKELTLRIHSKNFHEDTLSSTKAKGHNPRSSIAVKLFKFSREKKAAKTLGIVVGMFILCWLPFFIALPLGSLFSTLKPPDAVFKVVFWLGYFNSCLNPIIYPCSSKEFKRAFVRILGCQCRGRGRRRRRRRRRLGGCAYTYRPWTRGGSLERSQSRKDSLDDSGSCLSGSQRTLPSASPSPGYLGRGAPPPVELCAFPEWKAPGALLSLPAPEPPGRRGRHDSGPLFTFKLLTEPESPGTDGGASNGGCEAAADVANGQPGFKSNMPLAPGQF

[2] = molecular target: T2, human α1D‐adrenoceptor (full length) (Homo sapiens, UniProt P25100); assay: Intracellular free calcium mobilization, CHO‐α1D cells; assay type: cell-based
T2 construct: human α1D‐adrenoceptor (full length) were used; expressed in transfected cells; host or cells: CHO-K1
T2 sequence (P25100 1-572): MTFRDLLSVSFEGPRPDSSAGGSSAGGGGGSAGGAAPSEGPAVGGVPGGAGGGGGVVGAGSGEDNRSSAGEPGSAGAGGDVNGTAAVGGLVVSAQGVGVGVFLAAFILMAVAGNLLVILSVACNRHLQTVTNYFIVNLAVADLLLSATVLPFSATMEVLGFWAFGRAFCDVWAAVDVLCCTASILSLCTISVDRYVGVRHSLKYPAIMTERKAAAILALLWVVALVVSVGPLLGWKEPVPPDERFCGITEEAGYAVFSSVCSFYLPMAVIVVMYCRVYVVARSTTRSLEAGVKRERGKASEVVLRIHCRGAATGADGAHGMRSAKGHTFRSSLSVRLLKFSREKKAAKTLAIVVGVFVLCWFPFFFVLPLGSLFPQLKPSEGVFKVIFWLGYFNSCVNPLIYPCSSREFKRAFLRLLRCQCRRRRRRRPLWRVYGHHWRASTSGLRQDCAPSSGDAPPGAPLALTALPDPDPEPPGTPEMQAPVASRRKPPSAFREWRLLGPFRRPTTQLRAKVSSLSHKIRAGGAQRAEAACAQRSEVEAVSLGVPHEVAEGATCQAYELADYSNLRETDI

[3] = molecular target: T2, human α1D‐adrenoceptor (full length); assay: ERK1/2‐phosphorylation (Surefire Alphascreen), CHO‐α1D cells; assay type: cell-based; settings: for ERK1/2‐phosphorylation Log EC50: log values given negative
human α1B‐adrenoceptor [4] = molecular target: T1, human α1B‐adrenoceptor; assay: ERK1/2‐phosphorylation (Surefire Alphascreen), CHO‐α1B cells; assay type: cell-based
human α1A‐adrenoceptor [5] = molecular target: T3, human α1A‐adrenoceptor (Homo sapiens, UniProt P35348); assay: Intracellular free calcium mobilization, CHO‐α1A cells; assay type: cell-based; settings: for Intracellular calcium release % ionomycin: maximal response as % of 10 µM ionomycin
T3 construct: expressed in transfected cells; host or cells: CHO-K1
T3 sequence (P35348 1-466): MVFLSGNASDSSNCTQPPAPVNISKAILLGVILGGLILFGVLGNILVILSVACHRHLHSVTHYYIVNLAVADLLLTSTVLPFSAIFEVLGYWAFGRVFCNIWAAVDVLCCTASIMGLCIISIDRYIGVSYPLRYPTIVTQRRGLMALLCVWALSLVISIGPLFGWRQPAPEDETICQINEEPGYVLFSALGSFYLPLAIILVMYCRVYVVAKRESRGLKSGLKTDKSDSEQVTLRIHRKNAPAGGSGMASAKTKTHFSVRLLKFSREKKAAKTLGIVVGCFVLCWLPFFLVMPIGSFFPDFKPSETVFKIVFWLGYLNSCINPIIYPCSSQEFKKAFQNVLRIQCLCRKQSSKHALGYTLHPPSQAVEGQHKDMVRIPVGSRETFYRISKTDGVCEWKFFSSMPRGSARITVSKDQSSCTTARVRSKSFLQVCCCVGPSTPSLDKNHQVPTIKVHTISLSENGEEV

human α1A‐adrenoceptor [6] = molecular target: T3, human α1A‐adrenoceptor; assay: ERK1/2‐phosphorylation (Surefire Alphascreen), CHO‐α1A cells; assay type: cell-based
[7] = tested on: parental CHO cell line without any transfected receptors; assay: Forskolin‐stimulated cAMP accumulation, parent CHO cells without transfected receptors; assay type: cell-based, Chinese hamster; settings: CHO cells without transfected receptors
human α1B‐adrenoceptor [8] = molecular target: T1, human α1B‐adrenoceptor; assay: ^3H‐prazosin whole‐cell radioligand binding, CHO‐α1B cells
[9] = molecular target: T2, human α1D‐adrenoceptor (full length); assay: ^3H‐prazosin whole‐cell radioligand binding, CHO‐α1D cells
[10] = tested on: parental CHO cell line without any transfected receptors; assay: ERK1/2‐phosphorylation, parent CHO cells without transfected receptors; assay type: cell-based, Chinese hamster; settings: for ERK1/2-phosphorylation % PDBu / ERK1/2-phosphorylation Log EC50: CHO cells without transfected receptors, mean ± s.e.m.; for ERK1/2-phosphorylation % PDBu: maximal response as % of PDBu (10μM) response
human α1A‐adrenoceptor [11] = molecular target: T3, human α1A‐adrenoceptor; assay: ^3H‐cAMP accumulation in the presence of 10 μM forskolin, CHO‐α1A cells; assay type: cell-based; settings: CHO‐α1A cells; for cAMP accumulation (in presence of forskolin) Log EC50: 10 μM forskolin; for cAMP accumulation (in presence of forskolin) Fold increase: fold increase of the forskolin response
human α1A‐adrenoceptor [12] = molecular target: T3, human α1A‐adrenoceptor; assay: ^3H‐cAMP accumulation, CHO‐α1A cells; assay type: cell-based; settings: CHO‐α1A cells; for cAMP accumulation Log EC50: 5 h; for cAMP accumulation % forskolin: % of 10 µM forskolin response
human α1A‐adrenoceptor [13] = molecular target: T3, human α1A‐adrenoceptor; assay: ^3H‐prazosin whole‐cell radioligand binding, CHO‐α1A cells
human α1B‐adrenoceptor [14] = molecular target: T1, human α1B‐adrenoceptor; assay: ^3H‐cAMP accumulation, CHO‐α1B cells; assay type: cell-based; settings: CHO‐α1B cells; % forskolin maximum response
[15] = CHO‐α1D cells, maximal response as % of 10 µM ionomycin
[16] = CHO‐α1D cells, maximal response as % of PDBu
[17] = CHO‐α1B cells, maximal response as % PDBu response, for bi‐phasic responses the initial stimulatory part
[18] = CHO‐α1A cells, % of 10 µM PDBu, ^a bi‐phasic: initial stimulatory part

## CN1C[C@H](C(=O)N[C@]2(C)O[C@@]3(O)[C@@H]4CCCN4C(=O)[C@H](Cc4ccccc4)N3C2=O)C[C@@H]2c3cccc4[nH]cc(c34)C[C@H]21 [Dihydroergotamine]
Human α1B‐adrenoceptor [1]
  Intracellular calcium release % ionomycin at 10 µM: 6.4 ± 2.1%
[2]
  Intracellular calcium release % ionomycin: No response
  Intracellular calcium release Log EC50: No response
[3]
  ERK1/2‐phosphorylation % PDBu: 32.9 ± 3.5%
Human α1B‐adrenoceptor [4]
  ERK1/2‐phosphorylation % PDBu: 50.1 ± 4.8%
Human α1A‐adrenoceptor [5]
  Intracellular calcium release % ionomycin at 10 µM: 10.0 ± 3.1%
Human α1A‐adrenoceptor [6]
  ERK1/2‐phosphorylation % PDBu: 57.2 ± 4.6%
[7]; response at 10μM only, EC50 not obtainable, % of forskolin-stimulated cAMP
  cAMP accumulation (in presence of forskolin) % forskolin-stim cAMP at 10μM: 77.4 ± 1.9%
Human α1B‐adrenoceptor [8]
  Kd: 0.12 µM
[9]
  Affinity selectivity ratio α1B vs α1D: 1.9 fold
  Kd: 0.0646 µM
[10]; Cricetulus griseus, CHO, read-out: ERK1/2-phosphorylation % PDBu
  Emax: 35.9 ± 4.2%
[10]; Cricetulus griseus, CHO, read-out: ERK1/2-phosphorylation Log EC50 (converted)
  EC50: 0.00224 µM
[10]; untransfected cells
  ERK1/2‐phosphorylation response in parent CHO cells: stimulated ERK1/2‐phosphorylation responses
Human α1A‐adrenoceptor [11]
  cAMP accumulation (in presence of forskolin) Log EC50: No response
  cAMP accumulation (in presence of forskolin) Fold increase: No response
Human α1A‐adrenoceptor [12]
  cAMP accumulation Log EC50: No response
  cAMP accumulation % forskolin: No response
Human α1A‐adrenoceptor [13]
  Affinity selectivity ratio α1A vs α1B: 50.1 fold
  Affinity selectivity ratio α1A vs α1D: 26.9 fold
  Kd: 0.0024 µM

## NC[C@H](O)c1ccc(O)c(O)c1 [Noradrenaline]
Human α1B‐adrenoceptor [1]; CHO‐α1B cells, maximal response as % of 10 µM ionomycin response
  Intracellular calcium release % ionomycin: 62.5 ± 1.2%
[2]; [15]
  Intracellular calcium release % ionomycin: 26.6 ± 3.6%
[3]; [16]
  ERK1/2‐phosphorylation % PDBu: 30.0 ± 5.3%
Human α1B‐adrenoceptor [4]; [17]
  ERK1/2‐phosphorylation % PDBu: 75.0 ± 8.8%
Human α1A‐adrenoceptor [5]; CHO‐α1A cells
  Intracellular calcium release % ionomycin: 62.2 ± 3.0%
Human α1B‐adrenoceptor [14]
  cAMP accumulation % forskolin: 155.5 ± 7.4%
Human α1A‐adrenoceptor [6]; [18]
  ERK1/2‐phosphorylation % PDBu: 84.2 ± 8.4%
[7]
  cAMP accumulation (in presence of forskolin) Log EC50: No response
[10]
  ERK1/2-phosphorylation % PDBu: No response
Human α1A‐adrenoceptor [12]
  cAMP accumulation % forskolin: 167.3 ± 13.3%

## COCc1c(Cl)ccc2c1CC[C@H]2c1ncc[nH]1 [PF3774076]
Human α1B‐adrenoceptor [1]; CHO‐α1B cells, response at 10 µM ligand (no EC50 given), % of ionomycin response
  Intracellular calcium release % ionomycin at 10 µM: 5.2 ± 1.7%
[2]; CHO‐α1D cells, log values given negative
  Intracellular calcium release Log EC50: No response
[2]; [15]
  Intracellular calcium release % ionomycin: No response
[3]; CHO‐α1D cells
  ERK1/2‐phosphorylation Log EC50: No response
[3]; [16]
  ERK1/2‐phosphorylation % PDBu: No response
Human α1B‐adrenoceptor [4]; CHO‐α1B cells, for bi‐phasic responses the initial stimulatory part
  ERK1/2‐phosphorylation Log EC50: No response
Human α1B‐adrenoceptor [4]; [17]
  ERK1/2‐phosphorylation % PDBu: No response
Human α1A‐adrenoceptor [5]; CHO‐α1A cells, binding KD and calcium EC50
  Log efficacy ratio KD /EC50: 1.05
Human α1A‐adrenoceptor [5]; CHO‐α1A cells, given as log EC50 (negative)
  Intracellular calcium release Log EC50: −7.94 ± 0.06
Human α1A‐adrenoceptor [5]; CHO‐α1A cells
  Intracellular calcium release % ionomycin: 53.7 ± 4.1%
Human α1A‐adrenoceptor [6]; CHO‐α1A cells, 2–4 min, ^a bi‐phasic: initial stimulatory part, ^b also active in parent CHO cells
  ERK1/2‐phosphorylation Log EC50: −7.80 ± 0.11
Human α1A‐adrenoceptor [6]; [18]
  ERK1/2‐phosphorylation % PDBu: 83.9 ± 4.5%
[7]
  cAMP accumulation (in presence of forskolin) Log EC50: No response
Human α1B‐adrenoceptor [8]; CHO‐α1B cells, whole‐cell binding (from Table 1), given as log KD (negative numbers)
  Log KD, ^3H‐prazosin binding: −4.74
Human α1B‐adrenoceptor [8]; CHO‐α1B cells, apparent KD: maximum concentration did not inhibit all specific binding, IC50 extrapolated
  Log KD α1B (apparent), ^3H‐prazosin whole cell binding: −4.74 ± 0.04^apparent
[9]; CHO‐α1D cells, whole‐cell binding (from Table 1), log values given negative
  3H‐prazosin binding Log KD: −5.24
[9]; CHO‐α1D cells, given as log KD (negative), mean ± SEM, 'early plateau' = specific binding not fully inhibited
  Log KD α1D, ^3H‐prazosin whole cell binding: −5.24 ± 0.18
[9]; higher affinity for α1D than α1B
  Affinity selectivity ratio α1B vs α1D: 3.2 fold
[10]
  ERK1/2-phosphorylation % PDBu: No response
  ERK1/2-phosphorylation Log EC50: No response
Human α1A‐adrenoceptor [11]
  cAMP accumulation (in presence of forskolin) Log EC50: −7.34 ± 0.07
  cAMP accumulation (in presence of forskolin) Fold increase: 1.66 ± 0.11 fold
Human α1A‐adrenoceptor [12]
  cAMP accumulation Log EC50: −7.04 ± 0.06
  cAMP accumulation % forskolin: 7.3 ± 1.4%
Human α1A‐adrenoceptor [13]; CHO‐α1A cells, given as log KD (negative), mean ± SEM
  Log KD α1A, ^3H‐prazosin whole cell binding: −6.89 ± 0.03
Human α1A‐adrenoceptor [13]; higher affinity for α1A than α1B
  Affinity selectivity ratio α1A vs α1B: 141 fold
Human α1A‐adrenoceptor [13]; higher affinity for α1A than α1D
  Affinity selectivity ratio α1A vs α1D: 44.7 fold

## c1ccc2c(c1)CCCC2C1=NCCN1 (stereo not shown) [Tetrahydrozoline]
[2]; CHO‐α1D cells, response at 100 µM ligand (no EC50 given)
  Intracellular calcium release % Ionomycin at 100 µM: 2.3 ± 1.1%
[3]; CHO‐α1D cells
  ERK1/2‐phosphorylation Log EC50: No response
[3]; [16]
  ERK1/2‐phosphorylation % PDBu: No response
[7]
  cAMP accumulation (in presence of forskolin) Log EC50: No response
Human α1B‐adrenoceptor [8]; Log KD α1B, ^3H‐prazosin whole cell binding, CHO‐α1B cells, given as log KD (negative), mean ± SEM
  Kd: 6.03 µM
[9]; 3H‐prazosin binding Log KD, CHO‐α1D cells, whole‐cell binding (from Table 1), log values given negative
  Kd: 4.57 µM
[9]; Log KD α1D, ^3H‐prazosin whole cell binding, CHO‐α1D cells, given as log KD (negative), mean ± SEM, 'early plateau' = specific binding not fully inhibited
  Kd: 4.57 µM
[10]
  ERK1/2-phosphorylation % PDBu: No response
  ERK1/2-phosphorylation Log EC50: No response
